Test results published in patent US5840684A, “Glycopeptide antibiotic derivatives” (Eli Lilly and Company, priority 1995, dated 1998).
In brackets after ≈: the same amount, converted by molar mass.

Assays:
[1] = tested on: Staphylococcus aureus S13E; format: cell-based
Method: (§1) The MIC's were determined using a standard broth micro-dilution assay.

[2] = tested on: Staphylococcus aureus SA1199B; format: cell-based
Method: as §1

[3] = tested on: vancomycin-resistant enterococci; test: broth micro-dilution, mean geometric MIC; format: cell-based, Enterococcus faecium and Enterococcus faecalis; details: enterococci, 24-hour incubation
[4] = tested on: Staphylococcus aureus X778; test: broth micro-dilution MIC; format: cell-based
Method: as §1

[5] = tested on: Staphylococcus aureus 446; test: broth micro-dilution MIC; format: cell-based
Method: as §1

Entercoccus faecium 276 = test: broth micro-dilution MIC; format: cell-based
Method: as §1

[6] = tested on: Staphylococcus aureus 447; test: broth micro-dilution MIC; format: cell-based
Method: as §1

[7] = tested on: Streptococcus pyogenes C203; test: broth micro-dilution MIC; format: cell-based
Method: as §1

[8] = tested on: Staphylococcus aureus SA1199; test: broth micro-dilution MIC; format: cell-based
Method: as §1

[9] = tested on: Staphylococcus aureus 491; test: broth micro-dilution MIC; format: cell-based
Method: as §1

[10] = tested on: Staphylococcus aureus SA1199A; test: broth micro-dilution MIC; format: cell-based
Method: as §1

[11] = tested on: Staphylococcus aureus 489; test: broth micro-dilution MIC; format: cell-based
Method: as §1

[12] = tested on: Entercoccus faecium 180-1; test: broth micro-dilution MIC; format: cell-based
Method: as §1

[13] = tested on: Staphylococcus aureus X400; test: broth micro-dilution MIC; format: cell-based
Method: as §1

[14] = tested on: Enterococcus gallinarum 245; test: broth micro-dilution MIC; format: cell-based; details: Enterococcus gallinarum 245
Method: (§2) The formula I compounds have in vitro and in vivo activity against Gram-positive pathogenic bacteria. The MIC's were determined using a standard broth micro-dilution assay.

[15] = tested on: Staphylococcus haemolyticus 105; test: broth micro-dilution MIC; format: cell-based
Method: as §2

[16] = tested on: Staphylococcus epidermidis 270; test: broth micro-dilution MIC; format: cell-based
Method: as §2

Entercoccus faecium 2041 = test: broth micro-dilution MIC; format: cell-based; details: Entercoccus faecium 2041
Method: as §2

Entercoccus faecium 180 = test: broth micro-dilution MIC; format: cell-based; details: Entercoccus faecium 180
Method: as §2

[17] = tested on: Staphylococcus haemolyticus 415; test: broth micro-dilution MIC; format: cell-based
Method: as §2

[18] = tested on: Streptococcus pneumoniae P1; test: broth micro-dilution MIC; format: cell-based
Method: as §2

[19] = tested on: vancomycin-susceptible enterococci; test: broth micro-dilution, mean geometric MIC; format: cell-based, Enterococcus faecium and Enterococcus faecalis; details: enterococci, 24-hour incubation

| Structure (SMILES) | MIC [1] | MIC [2] | mean geometric MIC, Vancomycin Resistant Strains [3] | MIC [4] | MIC [5] | MIC (Entercoccus faecium 276) | MIC [6] | MIC [7] | MIC [8] | MIC [9] | MIC [10] | MIC [11] | MIC [12] | MIC [13] | MIC [14] | MIC [15] | MIC [16] | MIC (Entercoccus faecium 2041) | MIC (Entercoccus faecium 180) | MIC [17] | other results |
| --- | --- | --- | --- | --- | --- | --- | --- | --- | --- | --- | --- | --- | --- | --- | --- | --- | --- | --- | --- | --- | --- |
| CN[C@H](CC(C)C)C(=O)N[C@H]1C(=O)N[C@@H](CC(N)=O)C(=O)N[C@H]2C(=O)N[C@H]3C(=O)N[C@H](C(=O)N[C@H](C(=O)O)c4cc(O)cc(O)c4-c4cc3ccc4O)[C@H](O[C@H]3C[C@](C)(N)[C@@H](O)[C@H](C)O3)c3ccc(c(Cl)c3)Oc3cc2cc(c3O[C@@H]2O[C@H](CO)[C@@H](O)[C@H](O)[C@H]2O[C@H]2C[C@](C)(NCc3ccc(Oc4ccc(C(C)(C)C)cc4)cc3)[C@@H](O)[C@H](C)O2)Oc2ccc(cc2Cl)[C@H]1O [Compound 96] | 1 µg/mL (≈ 0.546 µM) | 1 µg/mL (≈ 0.546 µM) | 1.4 µg/mL | 1 µg/mL (≈ 0.546 µM) | 1 µg/mL (≈ 0.546 µM) | 0.5 µg/mL (≈ 0.273 µM) | 1 µg/mL (≈ 0.546 µM) | ≤ 0.06 µg/mL | 2 µg/mL (≈ 1.09 µM) | 1 µg/mL (≈ 0.546 µM) | ≤ 0.06 µg/mL | 1 µg/mL (≈ 0.546 µM) | 0.25 µg/mL (≈ 0.137 µM) | 2 µg/mL (≈ 1.09 µM) | 2 µg/mL (≈ 1.09 µM) | 2 µg/mL (≈ 1.09 µM) | 2 µg/mL (≈ 1.09 µM) | 1 µg/mL (≈ 0.546 µM) | 0.5 µg/mL (≈ 0.273 µM) | 2 µg/mL (≈ 1.09 µM) | MIC [18]: ≤ 0.06 µg/mL; mean geometric MIC, Vancomycin Sensitive Strains [19]: 0.11 µg/mL |
| CNC(CC(C)C)C(=O)NC1C(=O)NC(CC(N)=O)C(=O)NC2C(=O)NC3C(=O)NC(C(=O)NC(C(=O)O)c4cc(O)cc(O)c4-c4cc3ccc4O)C(OC3CC(C)(N)C(O)C(C)O3)c3ccc(c(Cl)c3)Oc3cc2cc(c3OC2OC(CO)C(O)C(O)C2OC2CC(C)(NCc3ccc(S(=O)(=O)N4CCCC4)cc3)C(O)C(C)O2)Oc2ccc(cc2Cl)C1O (stereo not drawn) [Compound 174] | ≤ 0.06 µg/mL | 0.125 µg/mL (≈ 0.0688 µM) | 19 µg/mL | ≤ 0.06 µg/mL | 0.5 µg/mL (≈ 0.275 µM) | ≤ 0.06 µg/mL | 4 µg/mL (≈ 2.2 µM) | ≤ 0.06 µg/mL | ≤ 0.06 µg/mL | 1 µg/mL (≈ 0.551 µM) | ≤ 0.06 µg/mL | ≤ 0.06 µg/mL | ≤ 0.06 µg/mL | ≤ 0.06 µg/mL | 16 µg/mL (≈ 8.81 µM) | 4 µg/mL (≈ 2.2 µM) | 2 µg/mL (≈ 1.1 µM) | ≤ 0.06 µg/mL | 2 µg/mL (≈ 1.1 µM) | 16 µg/mL (≈ 8.81 µM) | MIC [18]: ≤ 0.06 µg/mL; mean geometric MIC, Vancomycin Sensitive Strains [19]: 0.76 µg/mL |
| CNC(CC(C)C)C(=O)NC1C(=O)NC(CC(N)=O)C(=O)NC2C(=O)NC3C(=O)NC(C(=O)NC(C(=O)O)c4cc(O)cc(O)c4-c4cc3ccc4O)C(OC3CC(C)(N)C(O)C(C)O3)c3ccc(c(Cl)c3)Oc3cc2cc(c3OC2OC(CO)C(O)C(O)C2OC2CC(C)(NCc3c4ccccc4cc4ccccc34)C(O)C(C)O2)Oc2ccc(cc2Cl)C1O (stereo not drawn) [Compound 13] | 0.25 µg/mL (≈ 0.14 µM) | 4 µg/mL (≈ 2.24 µM) | 19 µg/mL | 2 µg/mL (≈ 1.12 µM) | 2 µg/mL (≈ 1.12 µM) | 0.5 µg/mL (≈ 0.28 µM) | 8 µg/mL (≈ 4.49 µM) | ≤ 0.06 µg/mL | 0.5 µg/mL (≈ 0.28 µM) | 2 µg/mL (≈ 1.12 µM) | ≤ 0.06 µg/mL | 1 µg/mL (≈ 0.561 µM) | ≤ 0.06 µg/mL | 1 µg/mL (≈ 0.561 µM) | 0.25 µg/mL (≈ 0.14 µM) | 8 µg/mL (≈ 4.49 µM) | 8 µg/mL (≈ 4.49 µM) | 0.125 µg/mL (≈ 0.0701 µM) | 2 µg/mL (≈ 1.12 µM) | 1 µg/mL (≈ 0.561 µM) | MIC [18]: ≤ 0.06 µg/mL; mean geometric MIC, Vancomycin Sensitive Strains [19]: 0.76 µg/mL |
| CNC(CC(C)C)C(=O)NC1C(=O)NC(CC(N)=O)C(=O)NC2C(=O)NC3C(=O)NC(C(=O)NC(C(=O)O)c4cc(O)cc(O)c4-c4cc3ccc4O)C(OC3CC(C)(N)C(O)C(C)O3)c3ccc(c(Cl)c3)Oc3cc2cc(c3OC2OC(CO)C(O)C(O)C2OC2CC(C)(NCc3ccnc4ccccc34)C(O)C(C)O2)Oc2ccc(cc2Cl)C1O (stereo not drawn) [Compound 27] | 0.125 µg/mL (≈ 0.0721 µM) | 1 µg/mL (≈ 0.577 µM) | 45 µg/mL | 0.5 µg/mL (≈ 0.288 µM) | 2 µg/mL (≈ 1.15 µM) | 0.5 µg/mL (≈ 0.288 µM) | 8 µg/mL (≈ 4.61 µM) | ≤ 0.06 µg/mL | 0.5 µg/mL (≈ 0.288 µM) | 1 µg/mL (≈ 0.577 µM) | ≤ 0.06 µg/mL | ≤ 0.06 µg/mL | 0.5 µg/mL (≈ 0.288 µM) | 0.5 µg/mL (≈ 0.288 µM) | 0.5 µg/mL (≈ 0.288 µM) | 16 µg/mL (≈ 9.23 µM) | 4 µg/mL (≈ 2.31 µM) | 0.125 µg/mL (≈ 0.0721 µM) | 8 µg/mL (≈ 4.61 µM) | 8 µg/mL (≈ 4.61 µM) | MIC [18]: ≤ 0.06 µg/mL; mean geometric MIC, Vancomycin Sensitive Strains [19]: 1.5 µg/mL |
| CNC(CC(C)C)C(=O)NC1C(=O)NC(CC(N)=O)C(=O)NC2C(=O)NC3C(=O)NC(C(=O)NC(C(=O)O)c4cc(O)cc(O)c4-c4cc3ccc4O)C(OC3CC(C)(N)C(O)C(C)O3)c3ccc(c(Cl)c3)Oc3cc2cc(c3OC2OC(CO)C(O)C(O)C2OC2CC(C)(NCc3cccc(OC4CCCCC4)c3)C(O)C(C)O2)Oc2ccc(cc2Cl)C1O (stereo not drawn) [Compound 153] | 0.125 µg/mL (≈ 0.0702 µM) | 0.25 µg/mL (≈ 0.14 µM) | 1.4 µg/mL | 0.5 µg/mL (≈ 0.281 µM) | 0.5 µg/mL (≈ 0.281 µM) | 0.5 µg/mL (≈ 0.281 µM) | 0.5 µg/mL (≈ 0.281 µM) | ≤ 0.06 µg/mL | 0.5 µg/mL (≈ 0.281 µM) | 0.125 µg/mL (≈ 0.0702 µM) | ≤ 0.06 µg/mL | 1 µg/mL (≈ 0.562 µM) | ≤ 0.06 µg/mL | 0.5 µg/mL (≈ 0.281 µM) | 1 µg/mL (≈ 0.562 µM) | 2 µg/mL (≈ 1.12 µM) | 0.25 µg/mL (≈ 0.14 µM) | ≤ 0.06 µg/mL | 0.125 µg/mL (≈ 0.0702 µM) | 1 µg/mL (≈ 0.562 µM) | MIC [18]: ≤ 0.06 µg/mL; mean geometric MIC, Vancomycin Sensitive Strains [19]: 0.083 µg/mL |
| CCCCCC#Cc1ccc(CNC2(C)CC(OC3C(Oc4c5cc6cc4Oc4ccc(cc4Cl)C(OC4CC(C)(N)C(O)C(C)O4)C4NC(=O)C(NC(=O)C6NC(=O)C(CC(N)=O)NC(=O)C(NC(=O)C(CC(C)C)NC)C(O)c6ccc(c(Cl)c6)O5)c5ccc(O)c(c5)-c5c(O)cc(O)cc5C(C(=O)O)NC4=O)OC(CO)C(O)C3O)OC(C)C2O)cc1 (stereo not drawn) [Compound 227] | 4 µg/mL (≈ 2.25 µM) | 4 µg/mL (≈ 2.25 µM) | 0.71 µg/mL | 4 µg/mL (≈ 2.25 µM) | 2 µg/mL (≈ 1.13 µM) | 0.5 µg/mL (≈ 0.281 µM) | 2 µg/mL (≈ 1.13 µM) | ≤ 0.06 µg/mL | 4 µg/mL (≈ 2.25 µM) | 2 µg/mL (≈ 1.13 µM) | 0.6 µg/mL (≈ 0.338 µM) | 2 µg/mL (≈ 1.13 µM) | ≤ 0.06 µg/mL | 1 µg/mL (≈ 0.563 µM) | 4 µg/mL (≈ 2.25 µM) | 2 µg/mL (≈ 1.13 µM) | 2 µg/mL (≈ 1.13 µM) | 0.25 µg/mL (≈ 0.141 µM) | 0.25 µg/mL (≈ 0.141 µM) | 4 µg/mL (≈ 2.25 µM) | MIC [18]: ≤ 0.06 µg/mL; mean geometric MIC, Vancomycin Sensitive Strains [19]: 0.11 µg/mL |
